Measured values from US7416848B2, “DNA encoding SNORF25 receptor” (H. Lundbeck A/S, priority 1999, dated 2008).
Each block holds one molecule with its values, some of them ahead of it.

Key:
[1] = molecular target: T1, SNORF25 (Homo sapiens, UniProt Q8TDV5); test: Stimulation of cAMP release by CHO cells stably expressing hSNORF25 receptors; assay type: cell-based; design: expressed in transfected cells; conditions: for stimulation of cAMP: 10 μM, data not shown; for % of PAF(C18) Response: maximum response as % of maximum response produced by PAF(C18) (taken as 100%); for EC50: mean ± S.E.M., at least 3 experiments, CHO cells stably expressing hSNORF25
T1 sequence (Q8TDV5 1-335): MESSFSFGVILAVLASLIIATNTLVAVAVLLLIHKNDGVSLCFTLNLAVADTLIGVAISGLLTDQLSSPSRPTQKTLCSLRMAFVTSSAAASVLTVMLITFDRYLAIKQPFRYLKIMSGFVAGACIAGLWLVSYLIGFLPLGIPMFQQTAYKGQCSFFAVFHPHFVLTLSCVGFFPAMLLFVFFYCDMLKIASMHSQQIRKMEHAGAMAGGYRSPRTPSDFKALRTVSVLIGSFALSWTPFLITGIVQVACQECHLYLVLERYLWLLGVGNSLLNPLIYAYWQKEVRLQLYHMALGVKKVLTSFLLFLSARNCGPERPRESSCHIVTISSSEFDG
Method: (§1) CHO cells are grown on 150 mm plates in HAM's F-12 medium with supplements (10% bovine calf serum, 4 mM L-glutamine and 100 units/ml penicillin/100 μg/ml streptomycin) at 37° C., 5% CO2. Stock plates of CHO cells are trypsinized and split 1:8 every 3–4 days.
Heterologous DNA can be stably incorporated into host cells, causing the cell to perpetually express a foreign protein. Methods for the delivery of the DNA into the cell are similar to those described above for transient expression but require the co-transfection of an ancillary gene to confer drug resistance on the targeted host cell. The ensuing drug resistance can be exploited to select and maintain cells that have taken up the DNA. An assortment of resistance genes are available including but not restricted to neomycin, kanamycin, and hygromycin. For the purposes of studies concerning the receptor of this invention, stable expression of a heterologous receptor protein is typically carried out in, mammalian cells including but not necessarily restricted to, CHO, HEK293, LM(tk−), etc.
(§2) The receptor-mediated stimulation or inhibition of cyclic AMP (cAMP) formation may be assayed in cells expressing the receptors. According to one method, cells are plated in 96-well plates or other vessels and preincubated in a buffer such as HEPES buffered saline (NaCl (150 mM), CaCl2 (1mM), KCl (5 mM), glucose (10 mM)) supplemented with a phosphodiesterase inhibitor such as 5 mM theophylline, with or without protease inhibitor cocktail (For example, a typical inhibitor cocktail contains 2 μg/ml aprotinin, 0.5 mg/ml leupeptin, and 10 μg/ml phosphoramidon.) for 20 min at 37° C., in 5% CO2. Test compounds are added with or without […] and incubated for an additional 10 min at 37° C. The medium is then aspirated and the reaction stopped by the addition of 100 mM HCl or other methods. The plates are stored at 4° C. for 15 min, and the cAMP content in the stopping solution is measured by radioimmunoassay. Radioactivity may be quantified using a gamma counter equipped with data reduction software. Specific modifications may be performed to optimize the assay for the receptor or to alter the detection method of cAMP.
as §2, with “According” for “The receptor-mediated stimulation or inhibition of cyclic AMP (cAMP) formation may be assayed in cells expressing the receptors. According”, “a second” for “one”, “washed 2 times with” for “plated in 96-well plates or other vessels and preincubated in a buffer such as”, “saline, as described above, and incubated overnight. On the day of the experiment, cells are washed 2 times with HEPES” for “saline (NaCl (150 mM), CaCl2 (1mM), KCl (5 mM), glucose (10 mM))”
Several other closely related analogues of PAF namely Lyso-PAF with different carbon chains also stimulated cAMP.

[2] = molecular target: T2, SNORF25 receptor (Rattus norvegicus, UniProt Q7TQN8); test: cAMP release in CHO cells transiently transfected with SNORF25; assay type: cell-based; conditions: 10 μM; SNORF25-transfected cells (FIG. 6)
T2 construct: the entire coding region was amplified from Rin14b cell line cDNA and rat genomic DNA; expressed in transfected cells; host or cells: CHO cells, transient (electroporation)
T2 sequence (Q7TQN8 with tags, fused parts or gaps limits assumed): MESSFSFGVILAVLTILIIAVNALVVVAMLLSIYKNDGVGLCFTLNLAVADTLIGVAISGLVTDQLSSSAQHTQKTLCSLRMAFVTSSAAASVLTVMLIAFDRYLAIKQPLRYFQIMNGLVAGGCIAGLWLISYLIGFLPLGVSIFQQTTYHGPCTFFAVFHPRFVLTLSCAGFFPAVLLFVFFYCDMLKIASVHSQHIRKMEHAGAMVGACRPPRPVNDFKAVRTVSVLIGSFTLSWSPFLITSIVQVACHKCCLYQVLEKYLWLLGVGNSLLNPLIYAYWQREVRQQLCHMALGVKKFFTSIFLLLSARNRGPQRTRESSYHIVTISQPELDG
Method: as §1
(§3) A typical protocol for the electroporation method as applied to Cos-7 cells is described as follows. Cells to be used for transfection are split 24 hours prior to the transfection to provide flasks which are subconfluent at the time of transfection. The cells are harvested by trypsinization resuspended in their growth media and counted. 5×10^6 cells are suspended in 300 μl of DMEM and placed into an electroporation cuvette. 8 μg of receptor DNA plus 8 μg of any additional DNA needed (e.g. G protein expression vector, reporter construct, antibiotic resistance marker, mock vector, etc.) is added to the cell suspension, the cuvette is placed into a BioRad Gene Pulser and subjected to an electrical pulse (Gene Pulser settings: 0.25 kV voltage, 950 μF capacitance). […]
(§4) The receptor-mediated stimulation or inhibition of cyclic AMP (cAMP) formation may be assayed in cells expressing the receptors. […] The plates are stored at 4° C. for 15 min, and the cAMP content in the stopping solution is measured by radioimmunoassay. Radioactivity may be quantified using a gamma counter equipped with data reduction software. […]

[3] = molecular target: T1, SNORF25; test: CFTR Cl- currents in Xenopus oocytes co-injected with SNORF25 and CFTR mRNA; assay type: cell-based; design: from linearized plasmids or PCR products containing the complete coding region of the genes; expressed in transfected cells; host or cells: Xenopus laevis oocytes injected with SNORF25 mRNA (with or without CFTR mRNA); conditions: 10 μM; for CFTR current response: oocytes with SNORF25 and CFTR mRNA (FIG. 12A)
Method: Oocytes are harvested from Xenopus laevis and injected with mRNA transcripts as previously described (Quick and Lester, 1994; Smith et al., 1997). The test receptor of this invention and Gα subunit RNA transcripts are synthesized using the T7 polymerase (“Message Machine,” Ambion) from linearized plasmids or PCR products containing the complete coding region of the genes. Oocytes are injected with 10 ng synthetic receptor RNA and incubated for 3–8 days at 17 degrees. Three to eight hours prior to recording, oocytes are injected with 500 pg promiscuous Gα subunits mRNA in order to observe coupling to Ca^++ activated Cl^− currents.
Each of the compounds was tested at 10 μM. Oocytes expressing SNORF25 generated inward Cl^− currents, consistent with CFTR activation, in response to all four of the ligands.
The activity of SNORF25 was therefore tested in oocytes co-injected with mRNA encoding SNORF25 and mRNA encoding CFTR. In 17 out of 39 of these oocytes an inward Cl^− current (105±20 nA) was measured in response to the application of 10 μM all-trans-retinoic acid (See FIGS. 9A–9C and 10).

[4] = molecular target: PAF receptors (Homo sapiens, UniProt P25105); conditions: cloned or native PAF receptors; cited from earlier work
[5] = tested on: isolated rat pancreatic islets; conditions: cited from earlier work
[6] = tested on: mock-transfected Cos-7 cells; test: cAMP in mock-transfected Cos-7 cells; assay type: cell-based; conditions: preliminary
Method: (§5) COS-7 cells are grown on 150 mm plates in DMEM with supplements (Dulbecco's Modified Eagle Medium with 10% bovine calf serum, 4 mM glutamine, 100 units/ml penicillin/100 μg/ml streptomycin) at 37° C., 5% CO2. Stock plates of COS-7 cells are trypsinized and split 1:6 every 3–4 days.
as §3, §4

[7] = tested on: SNORF25 receptor; test: cAMP release in Cos-7 cells transiently transfected with SNORF25; assay type: cell-based; conditions: Cos-7 cells transiently transfected with SNORF25; preliminary, data not shown
Method: as §5, §3, §4

[8] = tested on: untransfected CHO cells; test: cAMP release in native untransfected CHO cells; assay type: cell-based, Chinese hamster; conditions: FIG. 11A
Method: as §1
as §2, with “cAMP. […]” for “cAMP.”

[9] = molecular target: B2 adrenergic receptor (B2AR) (Homo sapiens, UniProt P07550); conditions: 1 μM; holding potential −70 mV (FIG. 9C)
B2 adrenergic receptor (B2AR), sequence (P07550 whole entry, species assumed): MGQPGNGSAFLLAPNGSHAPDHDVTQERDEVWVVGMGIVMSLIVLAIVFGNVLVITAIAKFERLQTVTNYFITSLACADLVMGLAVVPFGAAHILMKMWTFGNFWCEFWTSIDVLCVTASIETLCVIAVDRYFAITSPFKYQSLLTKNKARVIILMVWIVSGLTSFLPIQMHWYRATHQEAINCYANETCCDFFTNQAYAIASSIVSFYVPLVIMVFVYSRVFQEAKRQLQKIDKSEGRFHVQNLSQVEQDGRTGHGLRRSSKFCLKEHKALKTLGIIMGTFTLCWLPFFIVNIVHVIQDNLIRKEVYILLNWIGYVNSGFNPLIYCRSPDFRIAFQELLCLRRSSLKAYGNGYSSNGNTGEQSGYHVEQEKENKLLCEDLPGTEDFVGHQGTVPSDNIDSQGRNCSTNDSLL

PAF receptors, sequence (P25105 whole entry): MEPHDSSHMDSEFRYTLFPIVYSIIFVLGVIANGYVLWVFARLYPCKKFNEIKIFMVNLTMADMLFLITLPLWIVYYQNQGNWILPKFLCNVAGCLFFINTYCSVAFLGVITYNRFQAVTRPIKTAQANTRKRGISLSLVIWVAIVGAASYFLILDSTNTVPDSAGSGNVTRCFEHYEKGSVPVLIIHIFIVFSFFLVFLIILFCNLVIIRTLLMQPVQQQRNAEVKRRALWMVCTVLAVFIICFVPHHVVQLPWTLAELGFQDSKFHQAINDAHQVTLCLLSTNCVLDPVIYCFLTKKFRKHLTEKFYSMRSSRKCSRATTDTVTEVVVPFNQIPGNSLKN

Molecule: CCCCCCCCCCCCCCCCOC[C@@H](O)COP(=O)([O-])OCC[N+](C)(C)C [Lyso-PAF(C16)]
% of PAF(C18) Response [1]: 120% | EC50 [1]: 3.48 ± 1.13 µM | inward Cl- current amplitude ([3]; oocytes with SNORF25 and CFTR mRNA): 61.7±7.8 nA | CFTR current response [3]: robust responses

Molecule: CCCCCCCCCCCCCCCCCCOC[C@@H](O)COP(=O)([O-])OCC[N+](C)(C)C [Lyso-PAF(C18)]
% of PAF(C18) Response [1]: 70% | EC50 [1]: 5.45 ± 2.63 µM | CFTR current response [3]: robust responses

Molecule: CCCCCCCCCCCCCCCCOC[C@@H](O)COP(=O)([O-])OCC[N+](C)(C)C [lyso-PAF]
potency / activation at typical PAF receptors [4]: not activated | EC50 ([5]; basal (1.7 mM) and stimulatory (16.7 mM) glucose, read-out: EC50 of insulin release): ~100 µM

Molecule: C=C1CC[C@H](O)C/C1=C/C=C1\CCC[C@]2(C)[C@@H]([C@H](C)CCCC(C)C)CC[C@@H]12 [vitamin D3]
stimulation of cAMP [1]: no stimulation of cAMP

Molecule: 1-O-alkyl-2-acetyl-sn-glycero-3-phosphocholine [PAF]
stimulation of cAMP levels in mock-transfected cells [6]: not mock-transfected cells | stimulation of cAMP levels [7]: 4–5 fold | Emax of cAMP response ([1]; CHO cells expressing SNORF25 (FIG. 11A)): 200–400 % basal | potency / activation at typical PAF receptors [4]: nanomolar potencies | potency in inducing insulin secretion relative to lyso-PAF [5]: nearly equipotent to lyso-PAF | cAMP response in untransfected CHO cells [8]: No response

Molecule: CNC[C@H](O)c1ccc(O)c(O)c1 [epinephrine]
CFTR current [9]: evokes a similar current

Molecule: PAF(C16)
% of PAF(C18) Response [1]: 110% | CFTR current response [3]: robust responses

Results, then the molecule that gave them:

stimulation of cAMP [1]: no stimulation of cAMP
Molecule: CC1=C(/C=C/C(C)=C/C=C/C(C)=C/C=C/C=C(C)/C=C/C=C(C)/C=C/C2=C(C)CCCC2(C)C)C(C)(C)CCC1 [Atb carotene]

increase in cAMP [2]: failed to produce an increase in cAMP
Molecule: CC1=C(/C=C/C(C)=C/C=C/C(C)=C/CO)C(C)(C)CCC1 [All-trans retinol, all-trans-retinol]

stimulation of cAMP [1]: no stimulation of cAMP
Molecule: vitamin E

stimulation of cAMP [1]: no stimulation of cAMP
Molecule: CC(C)=CCC/C(C)=C/C=C/C(C)=C/C=C/C(C)=C/C=C/C=C(C)/C=C/C=C(C)/C=C/C=C(\C)CCC=C(C)C [licopene]

stimulation of cAMP [1]: no stimulation of cAMP
Molecule: CCCCC/C=C\C/C=C\C/C=C\C/C=C\CCCC(=O)O [AA]
